Here are results for two molecules from patent US20260041640A1 (INCYCLIX BIO, LLC, priority 2023, published 2026).

Read-outs that look alike come from different tables or passages of the source. Marks after values point to notes of the source that are not given here.

One data set relates to CCNE1-amplified cancers. The conditions noted are these: BID dosing; cited from earlier work.
For data set [1] the following is noted: phase 1/2 trial, advanced solid tumors; cited from earlier work.
Data set [2] addresses T1, CDK2/cyclin E (Homo sapiens, UniProt P24941). The conditions noted are these: intracellular; read-out: Nanobret IC50 CDK2/cyclin E; cited from earlier work.
For data set [3] the following is noted: cited from earlier work.
Data set [4] can be described thus: Published human plasma PK of BLU-222 and PF-07104091 (estimated from 2023 ASCO presentations). It is filed as in vivo. The conditions noted are these: for Cmax to Cmin Ratio: estimated from published human results. The source says:
This is under the assumption that off-target toxicity is driven by Cmax and efficacy is driven by time above therapeutic threshold (Table 5).

The next data set concerns Ovcar-3. To be noted: BLU-222: based on Ovcar-3 cell cycle data (maximum G1 arrest); read-out: Cellular IC50; cited from earlier work.
The target of data set [5] is T1, CDK2/cyclin E. To be noted: biochemical; read-out: Target IC50 CDK2/cyclin E; cited from earlier work.
For data set [6] the following is noted: treatment-related AEs, cited from earlier work.
Where [7] appears, read: plasma, 400 mg BID, estimated from published graph.
Setting [8] is: plasma, 600 mg BID, estimated from published graph.

For `FC(F)Oc1cc(Nc2cnc3cnn(CC4CCOCC4)c3n2)n[nH]1` [BLU-222], in the data set with CCNE1-amplified cancers, the “In Vivo efficacy (efficacious dose)” value is 100 mg/kg mg/kg BID. Besides, the “ocular adverse events (AEs) affecting vision, incidence” value in data set [1] was 19%. Moreover, in data set [1], the “ocular adverse events (AEs) affecting vision, patients” value is on record as 5 patients. Besides, the IC50 on CDK2/cyclin E [2] was 0.0177 µM; in the data set with Ovcar-3, more than 0.1 µM; at CDK2/cyclin E [5], 0.0026 µM. Also, the C12 hr is reported as 100* ng/mL in data set [3] (setting [7]) and 120* ng/mL in data set [3] (setting [8]). Further, the Cmax in data set [3] (setting [7]) was 927* ng/mL; in data set [3] (setting [8]), 2639* ng/mL. For the same molecule, the “Cmax to Cmin Ratio” value in data set [4] (400 mg BID) is listed as 9.3; in data set [4] (600 mg BID) it was 22.

Regarding `COCc1cc(C(=O)Nc2cc([C@H]3CC[C@@H](OC(=O)NC(C)C)C3)[nH]n2)n(C)n1` [PF-07104091], the “In Vivo efficacy (efficacious dose)” value in the data set with CCNE1-amplified cancers is recorded as not below 100 mg/kg BID. In addition, in data set [6] (Grade 3), the anemia is on record as 8.6%, the diarrhea is 8.6%, the fatigue is given as 20.0% and the nausea is on record as 14.3%. For the same molecule, the vomiting in data set [6] (Grade 3) is listed as 2.9%. In addition, in data set [6] (all grades), the anemia is given as 45.7%, the diarrhea was 48.6%, the fatigue is given as 45.7% and the nausea is listed as 77.1%. Further, in data set [6] (all grades), the vomiting was 48.6%. In data set [3] (human, plasma), the t1/2 was 2 to 3 h. Also, in data set [3] (human), the “MTD and monotherapy recommended dose for expansion (RDE)” value is recorded as 300 mg BID. Further, the Cmax in data set [3] (plasma, 300 mg BID, estimated from 2023 ASCO presentation) was ~2000* ng/mL. In data set [4] (300 mg BID, estimated using Cmax of 2000 ng/mL and t1/2 of 2-3 hours), the “C12 hr (Cmin at 12 hours)” value is listed as ~31-125* ng/mL. Also, the concentration at 12 h in data set [4] (human, 300 mg, read-out: C12 hr (Cmin at 12 hours)) was 31.2 to 125 ng/mL. For the same molecule, the IC50 in the data set on Ovcar-3 was less than 0.1 µM.
